Measurements published in ChEMBL document CHEMBL4483862, “Open-source discovery of chemical leads for next-generation chemoprotective antimalarials” (2018).

System: Plasmodium berghei
Test: Luciferase/luciferin-expressing antifolate-resistant parasites were used to infect a culture of HepG2 cells that were pre-incubated with compounds. Infected hepatocytes emit light due to the luciferase reaction. Assay results are presented as the percent inhibition of light emission compared to control. […]
Assay type: functional
Settings: sporozoite; for IC90: read-out: LUCIFERASE INFECTION ASSAY - IC90
[1] = read-out: LUCIFERASE INFECTION ASSAY - IC50

SMILES	IC90	IC50 [1]	also measured
CCCOc1cc2cc(C(=O)c3ccccc3O)cnc2cc1OCCC	4.78 µM		IC50 (FFLUC_HILL_SLOPE 5.56, FFLUC_R_SQUARED 0.125, HEPG2TOX_HILL_SLOPE 2.18, HEPG2TOX_R_SQUARED 0.51, PBLUC_HILL_SLOPE 8.83, PBLUC_R_SQUARED 0.576, read-out: LUCIFERASE INFECTION ASSAY - IC50): 3.73 µM
Cc1ccc2nc3ccccc3c(N3CCN(C(=O)c4ccccc4)CC3)c2c1	3.42 µM		IC50 (PBLUC_HILL_SLOPE 1, PBLUC_R_SQUARED 0.729, read-out: LUCIFERASE INFECTION ASSAY - IC50): 0.384 µM
O=C(Nc1cccc(C(F)(F)F)c1)Nc1ccc2nc(-c3ccco3)nn2c1	> 10 µM		IC50 (FFLUC_HILL_SLOPE 40.8, FFLUC_R_SQUARED 0.195, PBLUC_HILL_SLOPE 31.8, PBLUC_R_SQUARED 0.106, read-out: LUCIFERASE INFECTION ASSAY - IC50): 9.83 µM
COc1cccc(Nc2nnc(SCC(=O)N(c3ccccc3)C(C)C)s2)c1	> 10 µM	> 10 µM	
Cc1ccc(Sc2nc(-c3cccs3)ns2)cc1	> 11.4 µM		IC50 (PBLUC_HILL_SLOPE 0.427, PBLUC_R_SQUARED 0.742, read-out: LUCIFERASE INFECTION ASSAY - IC50): 0.259 µM
N#CC1(c2ccccc2)C/C(=C\c2cccnc2)C(=O)/C(=C/c2cccnc2)C1 (centres undefined)	4.83 µM		IC50 (HEPG2TOX_HILL_SLOPE 15.6, HEPG2TOX_R_SQUARED 0.458, PBLUC_HILL_SLOPE 155, PBLUC_R_SQUARED 0.194, read-out: LUCIFERASE INFECTION ASSAY - IC50): 4.76 µM
CCOC(=O)C1(C)CCCCN1C(=O)c1ccc(C(=O)OC)cc1 (centres undefined)	> 9.9 µM	> 9.9 µM	
COc1ccc(C2=NN(c3ccccc3)C(c3cn(-c4ccccc4)nc3-c3cccnc3)C2)cc1 (centres undefined)	9.32 µM		IC50 (PBLUC_HILL_SLOPE 3.03, PBLUC_R_SQUARED 0.661, read-out: LUCIFERASE INFECTION ASSAY - IC50): 4.51 µM
Cc1cc(CNC(C)c2cc(F)c(Cl)cc2Cl)cc(C)c1O (centres undefined)	> 10 µM	> 10 µM	
Cc1ccc(NCC(=O)NC(=O)Nc2cccc(C)c2C)cc1S(=O)(=O)N1CCCCC1	> 10 µM		IC50 (HEPG2TOX_HILL_SLOPE 1.43, HEPG2TOX_R_SQUARED 0.867, PBLUC_HILL_SLOPE 1.55, PBLUC_R_SQUARED 0.466, read-out: LUCIFERASE INFECTION ASSAY - IC50): 2.55 µM
Cn1ccc2cc(-c3cn4c(-c5ccncc5)cnc4cn3)ccc21	> 10.1 µM	> 10.1 µM	
COc1cc(C(O)(c2nc3ccccc3s2)C(F)(F)F)c(OC)cc1N (centres undefined)	> 10 µM		IC50 (HEPG2TOX_HILL_SLOPE 2.34, HEPG2TOX_R_SQUARED 0.875, PBLUC_HILL_SLOPE 2.52, PBLUC_R_SQUARED 0.408, read-out: LUCIFERASE INFECTION ASSAY - IC50): 6.31 µM
CCOc1ccccc1NC(=O)C(c1ccccc1)N1CCC(n2c(=O)[nH]c3ccccc32)CC1 (centres undefined)	> 10 µM	5.29 µM	
CNc1nc(NCc2ccc(C)cc2C)c2sccc2n1	> 11.1 µM	> 11.1 µM	
CC(C)(C)c1ccc(-c2ccc(OCCCc3ccccn3)nc2)cc1	> 9.52 µM		IC50 (HEPG2TOX_HILL_SLOPE 3.23, HEPG2TOX_R_SQUARED 0.98, PBLUC_HILL_SLOPE 2.82, PBLUC_R_SQUARED 0.72, read-out: LUCIFERASE INFECTION ASSAY - IC50): 6.22 µM
COc1cc(-c2cnc3cnc(-c4ccc(NCCN5CCOCC5)nc4)cn23)ccc1O	> 7.39 µM		IC50 (HEPG2TOX_HILL_SLOPE 1.25, HEPG2TOX_R_SQUARED 0.41, PBLUC_HILL_SLOPE 2.45, PBLUC_R_SQUARED 0.19, read-out: LUCIFERASE INFECTION ASSAY - IC50): 6.15 µM
C/C(N)=C(/C#N)C(=O)COC(=O)CCN1C(=O)C2CC=CCC2C1=O (centres undefined)	> 10 µM	> 10 µM	
CC(=O)Nc1nc(C(=O)Nc2nc3ccccc3n2C2CCCCC2)cs1	> 10 µM	> 10 µM	
NC(c1csc(Nc2ccc(C(F)(F)F)cn2)n1)C1CCCCC1 (centres undefined)	> 9.26 µM		IC50 (PBLUC_HILL_SLOPE 4.28, PBLUC_R_SQUARED 0.42, read-out: LUCIFERASE INFECTION ASSAY - IC50): 7.59 µM
N#CC1C(=N)Oc2c(ccc3ccccc23)C1c1ccc(Cl)cc1 (centres undefined)	> 9.92 µM	> 9.92 µM	
Cc1noc2nc(C3CC3)cc(C(=O)N3CCC(C(N)=O)CC3)c12	> 10 µM	> 10 µM	

SMILES	IC90	IC50 [1]	also measured
CCN(CCNc1ncnc2sc(-c3ccccc3)cc12)c1cccc(C)c1	3.9 µM		IC50 (HEPG2TOX_HILL_SLOPE 2.04, HEPG2TOX_R_SQUARED 0.0176, PBLUC_HILL_SLOPE 12.8, PBLUC_R_SQUARED 0.373, read-out: LUCIFERASE INFECTION ASSAY - IC50): 3.29 µM
C(=C(c1nc2ccccc2s1)c1nc2ccccc2s1)c1ccc(N2CCOCC2)cc1	3.63 µM	0.749 µM	
CCCn1c(C)cc(C(=O)CN(C)S(=O)(=O)c2ccc(F)cc2)c1C	> 10 µM		IC50 (HEPG2TOX_HILL_SLOPE 0.529, HEPG2TOX_R_SQUARED 0.126, read-out: LUCIFERASE INFECTION ASSAY - IC50): > 10 µM
COC(=O)c1cc(NC(=O)Nc2cc(Cl)cc(Cl)c2)ccc1N1CCOCC1	4.16 µM		IC50 (PBLUC_HILL_SLOPE 7.3, PBLUC_R_SQUARED 0.704, read-out: LUCIFERASE INFECTION ASSAY - IC50): 3.08 µM
CCOC(=O)c1sc(N)c(C#N)c1CSc1nnc(-c2ccc(OC)c(OC)c2)o1	9.92 µM		IC50 (HEPG2TOX_HILL_SLOPE 2.07, 4.99, HEPG2TOX_R_SQUARED 0.833, 0.121, PBLUC_HILL_SLOPE 3.67, 1.56, PBLUC_R_SQUARED 0.0908, 0.540, read-out: LUCIFERASE INFECTION ASSAY - IC50): 4.06 µM
Cc1cc(-c2cc(C(=O)NCc3ccc(Cn4cncn4)cc3)c3cnn(C(C)C)c3n2)c(C)s1	> 10 µM	> 10 µM	
O=C(CN1CC=C(c2c[nH]c3ccccc23)CC1)Nc1cccc(F)c1	> 10 µM		IC50 (PBLUC_HILL_SLOPE 2.56, PBLUC_R_SQUARED 0.252, read-out: LUCIFERASE INFECTION ASSAY - IC50): 6.56 µM
COc1ccc(-c2cnc3cnc(-c4cccc(NS(C)(=O)=O)c4)cn23)cn1	7.13 µM	4.3 µM	
Cc1cc(-c2ccccc2)nc(SCc2ccc(C#N)cc2)n1	5.95 µM		IC50 (HEPG2TOX_HILL_SLOPE 7.96, HEPG2TOX_R_SQUARED 0.286, PBLUC_HILL_SLOPE 151, PBLUC_R_SQUARED 0.106, read-out: LUCIFERASE INFECTION ASSAY - IC50): 5.87 µM
COc1cc(NC(=O)C(C)(C)n2cc(-c3ccc(OCCN4CCCC4)cc3)cn2)cc(OC)c1	> 10 µM	> 10 µM	
O=C(NCC1CC1)c1cccc(C2(CNCCCN3CCOCC3)CC2)c1	> 10 µM	> 10 µM	
COc1ccccc1C(=O)Nc1ccc2c(c1)nc(CCN1CCCC1)n2C	> 8.72 µM		IC50 (PBLUC_HILL_SLOPE 41.2, PBLUC_R_SQUARED 0.16, read-out: LUCIFERASE INFECTION ASSAY - IC50): 8.38 µM
CC(=O)N1CCN(c2nc(CC(C)C)c3c(c2C#N)CCCC3)CC1	> 9.69 µM		IC50 (FFLUC_HILL_SLOPE 6.37, FFLUC_R_SQUARED 0.032, PBLUC_HILL_SLOPE 12.2, PBLUC_R_SQUARED 0.0332, read-out: LUCIFERASE INFECTION ASSAY - IC50): 8.99 µM
Cc1ccc2nc(NC(=O)c3cccc(F)c3)c(C(=O)NC3CCCCC3)n2c1	0.924 µM		IC50 (HEPG2TOX_HILL_SLOPE 1.74, HEPG2TOX_R_SQUARED 0.865, PBLUC_HILL_SLOPE 15.6, PBLUC_R_SQUARED 0.75, read-out: LUCIFERASE INFECTION ASSAY - IC50): 0.803 µM
Cc1onc(-c2ccc(Cl)cc2)c1-c1ccnc(SCC(=O)Nc2ccc(Cl)cc2)n1	> 7 µM		IC50 (FFLUC_HILL_SLOPE 3.87, FFLUC_R_SQUARED 0.391, HEPG2TOX_HILL_SLOPE 3.01, HEPG2TOX_R_SQUARED 0.647, PBLUC_HILL_SLOPE 15.9, PBLUC_R_SQUARED 0.148, read-out: LUCIFERASE INFECTION ASSAY - IC50): 6.77 µM
O=C(NC1CC1)c1csc(C(O)c2cccc(OC(F)(F)F)c2)n1 (centres undefined)	0.901 µM		IC50 (HEPG2TOX_HILL_SLOPE 2.47, HEPG2TOX_R_SQUARED 0.742, PBLUC_HILL_SLOPE 2.02, PBLUC_R_SQUARED 0.793, read-out: LUCIFERASE INFECTION ASSAY - IC50): 0.304 µM
Fc1ccc(-c2csc3ncnc(NC4CCN(Cc5ccccc5)C4)c23)cc1 (centres undefined)	> 10 µM		IC50 (PBLUC_HILL_SLOPE 12.7, PBLUC_R_SQUARED 0.103, read-out: LUCIFERASE INFECTION ASSAY - IC50): 9.17 µM
OCc1ccc(-c2cnc3ccc(-c4cccc(Cl)c4)nn23)cc1	3.31 µM		IC50 (FFLUC_HILL_SLOPE 12.3, FFLUC_R_SQUARED 0.916, HEPG2TOX_HILL_SLOPE 9.11, HEPG2TOX_R_SQUARED 0.904, PBLUC_HILL_SLOPE 1.55, PBLUC_R_SQUARED 0.705, read-out: LUCIFERASE INFECTION ASSAY - IC50): 0.798 µM
Cn1cc(-c2cnc3cnc(-c4cccc(Cl)c4)cn23)cn1	> 10.7 µM	> 10.7 µM	
CC(C)(C)c1ccc(C2NCC(c3ccc(Cl)cc3Cl)c3c2[nH]c2ccccc32)cc1 (centres undefined)	4.09 µM		IC50 (FFLUC_HILL_SLOPE 4.79, FFLUC_R_SQUARED 0.608, HEPG2TOX_HILL_SLOPE 0.722, HEPG2TOX_R_SQUARED 0.602, PBLUC_HILL_SLOPE 10.9, PBLUC_R_SQUARED 0.683, read-out: LUCIFERASE INFECTION ASSAY - IC50): 3.34 µM
CC(C)(C)c1nnc(Sc2ncc([N+](=O)[O-])s2)[nH]1	11.3 µM		IC50 (FFLUC_HILL_SLOPE 12.8, FFLUC_R_SQUARED 0.253, HEPG2TOX_HILL_SLOPE 7.13, HEPG2TOX_R_SQUARED 0.706, PBLUC_HILL_SLOPE 14.6, PBLUC_R_SQUARED 0.134, read-out: LUCIFERASE INFECTION ASSAY - IC50): 9.74 µM
